Source: US10047069B2, “Compositions comprising an inhibitor of lysine specific demethylase-1” (Celgene Quanticel Research, Inc., priority 2015, dated 2018)
Converted amounts (≈) assume the structure as drawn.

What was measured:
[1] = Stability post-storage at 40° C./75% RH assessed by XRPD; format: physicochemical; details: form change assessed by XRPD
Experimental: Representative samples for the twenty-six forms were further analysed by NMR/IC and DSC. The stability of the samples after storage at 40° C./75% RH was also assessed by XRPD. Solubility in FeSSIF media was determined for selected samples. […] IC was employed to determine the molar equivalence for inorganic counterions, sulphate and phosphate.

[2] = Thermodynamic solubility in FeSSIF; format: physicochemical; details: for Solubility in FeSSiF: fed state simulated intestinal fluid (FeSSIF), equilibrated at 25° C. for 24 hours; for XRPD of residue: residue of the FeSSIF solubility test, analysed by XRPD as a damp solid
Experimental: Solubility was determined by suspending sufficient compound in fed state simulated intestinal fluid (FeSSIF) to give a maximum final concentration of >3 mg/ml of the parent free-form of the compound. The suspension was equilibrated at 25° C. for 24 hours then the pH was measured. The suspension was then filtered through a glass fibre C filter. The residue was analysed by XRPD as a damp solid. The filtrate was diluted by an appropriate factor prior to analysis by HPLC. Quantitation by HPLC was performed with reference to a standard solution of approximately 0.2 mg/ml in DMSO. Different volumes of the standard, diluted and undiluted sample solutions were injected. The solubility was calculated using the peak areas determined by integration of the peak found at the same retention time as the principal peak in the standard injection. Analysis was performed on an Agilent HP1100 series system equipped with a diode array detector and using ChemStation software vB.04.03.

Compound | Stability post-storage at 40° C./75% RH [1] | Solubility in FeSSiF [2] [µg/mL] | XRPD of residue [2]
COc1ccc(-c2c(-c3ccc(C#N)c(F)c3)nc(N3CCC(N)CC3)n(C)c2=O)cc1F [MSA 2, 4-[2-(4-aminopiperidin-1-yl)-5-(3-fluoro-4-methoxyphenyl)-1-methyl-6-oxo-1,6-dihydropyrimidin-4-yl]-2-fluorobenzonitrile] | Extra peaks observed |  | 
COc1ccc(-c2c(-c3ccc(C#N)c(F)c3)nc(N3CCC(N)CC3)n(C)c2=O)cc1F [MA 3, 4-[2-(4-aminopiperidin-1-yl)-5-(3-fluoro-4-methoxyphenyl)-1-methyl-6-oxo-1,6-dihydropyrimidin-4-yl]-2-fluorobenzonitrile] | Pattern change |  | 
COc1ccc(-c2c(-c3ccc(C#N)c(F)c3)nc(N3CCC(N)CC3)n(C)c2=O)cc1F [CA 2, 4-[2-(4-aminopiperidin-1-yl)-5-(3-fluoro-4-methoxyphenyl)-1-methyl-6-oxo-1,6-dihydropyrimidin-4-yl]-2-fluorobenzonitrile] | No form change |  | 
COc1ccc(-c2c(-c3ccc(C#N)c(F)c3)nc(N3CCC(N)CC3)n(C)c2=O)cc1F [CA 1, 4-[2-(4-aminopiperidin-1-yl)-5-(3-fluoro-4-methoxyphenyl)-1-methyl-6-oxo-1,6-dihydropyrimidin-4-yl]-2-fluorobenzonitrile] | Pattern change |  | 
COc1ccc(-c2c(-c3ccc(C#N)c(F)c3)nc(N3CCC(N)CC3)n(C)c2=O)cc1F [MLNA 1, 4-[2-(4-aminopiperidin-1-yl)-5-(3-fluoro-4-methoxyphenyl)-1-methyl-6-oxo-1,6-dihydropyrimidin-4-yl]-2-fluorobenzonitrile] | Pattern change |  | 
COc1ccc(-c2c(-c3ccc(C#N)c(F)c3)nc(N3CCC(N)CC3)n(C)c2=O)cc1F [MA 1, 4-[2-(4-aminopiperidin-1-yl)-5-(3-fluoro-4-methoxyphenyl)-1-methyl-6-oxo-1,6-dihydropyrimidin-4-yl]-2-fluorobenzonitrile] | Amorphous | 630 (≈ 1400 µM) | Amorphous
COc1ccc(-c2c(-c3ccc(C#N)c(F)c3)nc(N3CCC(N)CC3)n(C)c2=O)cc1F [SUCA 1, 4-[2-(4-aminopiperidin-1-yl)-5-(3-fluoro-4-methoxyphenyl)-1-methyl-6-oxo-1,6-dihydropyrimidin-4-yl]-2-fluorobenzonitrile] |  | 960 (≈ 2130 µM) | Amorphous
COc1ccc(-c2c(-c3ccc(C#N)c(F)c3)nc(N3CCC(N)CC3)n(C)c2=O)cc1F [FUA 2, 4-[2-(4-aminopiperidin-1-yl)-5-(3-fluoro-4-methoxyphenyl)-1-methyl-6-oxo-1,6-dihydropyrimidin-4-yl]-2-fluorobenzonitrile] | Increased |  | 
COc1ccc(-c2c(-c3ccc(C#N)c(F)c3)nc(N3CCC(N)CC3)n(C)c2=O)cc1F [BA 2, 4-[2-(4-aminopiperidin-1-yl)-5-(3-fluoro-4-methoxyphenyl)-1-methyl-6-oxo-1,6-dihydropyrimidin-4-yl]-2-fluorobenzonitrile] | No significant |  | 
COc1ccc(-c2c(-c3ccc(C#N)c(F)c3)nc(N3CCC(N)CC3)n(C)c2=O)cc1F [FUA 3, 4-[2-(4-aminopiperidin-1-yl)-5-(3-fluoro-4-methoxyphenyl)-1-methyl-6-oxo-1,6-dihydropyrimidin-4-yl]-2-fluorobenzonitrile] | Pattern change |  | 
COc1ccc(-c2c(-c3ccc(C#N)c(F)c3)nc(N3CCC(N)CC3)n(C)c2=O)cc1F [BSA 2, 4-[2-(4-aminopiperidin-1-yl)-5-(3-fluoro-4-methoxyphenyl)-1-methyl-6-oxo-1,6-dihydropyrimidin-4-yl]-2-fluorobenzonitrile] | Extra peaks observed |  | 
COc1ccc(-c2c(-c3ccc(C#N)c(F)c3)nc(N3CCC(N)CC3)n(C)c2=O)cc1F [TAR 1, 4-[2-(4-aminopiperidin-1-yl)-5-(3-fluoro-4-methoxyphenyl)-1-methyl-6-oxo-1,6-dihydropyrimidin-4-yl]-2-fluorobenzonitrile] | Pattern change |  | 
COc1ccc(-c2c(-c3ccc(C#N)c(F)c3)nc(N3CCC(N)CC3)n(C)c2=O)cc1F [SUCA 2, 4-[2-(4-aminopiperidin-1-yl)-5-(3-fluoro-4-methoxyphenyl)-1-methyl-6-oxo-1,6-dihydropyrimidin-4-yl]-2-fluorobenzonitrile] | Pattern change |  | 
COc1ccc(-c2c(-c3ccc(C#N)c(F)c3)nc(N3CCC(N)CC3)n(C)c2=O)cc1F [MA 2, 4-[2-(4-aminopiperidin-1-yl)-5-(3-fluoro-4-methoxyphenyl)-1-methyl-6-oxo-1,6-dihydropyrimidin-4-yl]-2-fluorobenzonitrile] | Pattern change |  | 
COc1ccc(-c2c(-c3ccc(C#N)c(F)c3)nc(N3CCC(N)CC3)n(C)c2=O)cc1F [pTSA 2, 4-[2-(4-aminopiperidin-1-yl)-5-(3-fluoro-4-methoxyphenyl)-1-methyl-6-oxo-1,6-dihydropyrimidin-4-yl]-2-fluorobenzonitrile] | Slight change in pattern |  | 
COc1ccc(-c2c(-c3ccc(C#N)c(F)c3)nc(N3CCC(N)CC3)n(C)c2=O)cc1F [PHOA 3, 4-[2-(4-aminopiperidin-1-yl)-5-(3-fluoro-4-methoxyphenyl)-1-methyl-6-oxo-1,6-dihydropyrimidin-4-yl]-2-fluorobenzonitrile] | Reduced crystallinity |  | 
COc1ccc(-c2c(-c3ccc(C#N)c(F)c3)nc(N3CCC(N)CC3)n(C)c2=O)cc1F [FUA 1, 4-[2-(4-aminopiperidin-1-yl)-5-(3-fluoro-4-methoxyphenyl)-1-methyl-6-oxo-1,6-dihydropyrimidin-4-yl]-2-fluorobenzonitrile] | Pattern change |  | 
COc1ccc(-c2c(-c3ccc(C#N)c(F)c3)nc(N3CCC(N)CC3)n(C)c2=O)cc1F [free base, 4-[2-(4-aminopiperidin-1-yl)-5-(3-fluoro-4-methoxyphenyl)-1-methyl-6-oxo-1,6-dihydropyrimidin-4-yl]-2-fluorobenzonitrile] |  | 280 (≈ 620 µM) | 
COc1ccc(-c2c(-c3ccc(C#N)c(F)c3)nc(N3CCC(N)CC3)n(C)c2=O)cc1F [MLNA 2, 4-[2-(4-aminopiperidin-1-yl)-5-(3-fluoro-4-methoxyphenyl)-1-methyl-6-oxo-1,6-dihydropyrimidin-4-yl]-2-fluorobenzonitrile] | Pattern change |  | 
COc1ccc(-c2c(-c3ccc(C#N)c(F)c3)nc(N3CCC(N)CC3)n(C)c2=O)cc1F [PHOA 2, 4-[2-(4-aminopiperidin-1-yl)-5-(3-fluoro-4-methoxyphenyl)-1-methyl-6-oxo-1,6-dihydropyrimidin-4-yl]-2-fluorobenzonitrile] | Pattern change |  | 
